According to US12239635B2, “Treatment of cognitive disorders using nitazoxanide (NTZ), nitazoxanide (NTZ) analogs, and metabolites thereof” (The Trustees of Columbia University in the City of New York, priority 2018, dated 2025):
Each block holds one compound with its values, some of them ahead of it.

Experiments:
in vivo [1] = details: ICR, mouse, po; for AUC(0-inf): AUC0-∞; for AUC(0-t): AUClast
Protocol: (§1) wherein Cmax indicates maximum plasma concentration observed, Tmax indicates time to Cmax, AUClast indicates the Area Under the Curve from zero to the last time point, AUC0-∞ indicates the total area under the plasma concentration time curve from zero to infinity, and T1/2 indicates terminal elimination half-life. […] Brain/Plasma ratio was calculated using the formula: (Brain AUClast)/(Plasma AUClast).

[2] = literature (Stockis et al. and others); cited from earlier work
in vivo [3] = details: Sprague Dawley, rat, po; for AUC(0-inf): AUC0-∞; for AUC(0-t): AUClast
Protocol: A pharmacokinetic experiment was performed to determine Tizoxanide (TIZ, active metabolite of Nitazoxanide, NTZ) in rat brain and plasma following oral administration to Sprague Dawley (SD) rat.
An Nitazoxanide (NTZ) pill (Alinia) solution was prepared at a concentration of 14.5 mg/mL (10.0 mg/mL as Nitazoxanide (NTZ) for oral administration (per os, PO), ad libitum, in a mixture of 0.5% methyl cellulose and 99.5% saline. The PO dosing volume was 10 mL/kg. SD rats (n=3 per time point; weighing 0.161 to 0.171 kg) were fasted and oral administration was given using a gavage needle. Blood samples were collected from jugular vein and brain tissues were sampled at 0.33, 1 and 4 hrs after oral administration. Blood samples were centrifuged immediately and a 100 ul aliquot of plasma, and the brain tissues were stored −20° C. until the analysis. The concentration of Nitazoxanide (NTZ) and Tizoxanide (TIZ) in plasma and brain were determined by HPLC/MS/MS analysis. An Agilent 1200 HPLC with Zorbax C18 column and an API4000 tandem quadrupole mass spectrometer were used. The molecular ions of Nitazoxanide (NTZ), Tizoxanide (TIZ) and an internal standard (Chlorzoxazone) were fragmented and detected by monitoring the transitions for each compound. Peak areas were integrated using Analyst software version 1.5.1. (Applied Biosystems). The quantifiable range was from 0.001 to 3 μg/ml for plasma and brain samples. Plasma or brain concentration-time profile for each rat was analyzed (WinNonlin 4.1 program) to obtain pharmacokinetic profile parameters.
as §1

[4] = active metabolite following oral administration of Nitazoxanide; cited from earlier work

Structure (SMILES): CC(=O)Oc1ccccc1C(=O)Nc1ncc([N+](=O)[O-])s1 [Nitazoxanide (NTZ), [2-[(5-nitro-1,3-thiazol-2-yl)carbamoyl]phenyl]ethanoate]
Brain/plasma ratio (in vivo [1]): 0.015
Pharmacokinetic profile in humans [2]: excellent pharmacokinetic profiles
Tolerability in humans [2]: well-tolerated
Brain/plasma ratio (in vivo [3]): 0.008

Brain/plasma ratio (in vivo [1]): 0.015
Cmax, plasma (in vivo [1]): 288.50 ± 227.73 ng/mL
Tmax, brain (in vivo [1]): 1.55 ± 2.12 h
AUC(0-inf) (in vivo [1]; brain): 9.06 ng·h/mL
AUC(0-inf) (in vivo [1]; plasma): 1000 ng·h/mL
AUC(0-t) (in vivo [1]; brain): 7.18 ± 5.62 ng·h/mL
AUC(0-t) (in vivo [1]; plasma): 485 ± 163 ng·h/mL
Cmax (in vivo [1]; Cmax, plasma): 228 ng/mL
half-life (in vivo [1]; T1/2, brain): 1.15 h
half-life (in vivo [1]; T1/2, plasma): 3.8 h
Tmax (in vivo [1]; brain): 1.78 h
Tmax (in vivo [1]; plasma): 0.67 h
Brain/plasma ratio (in vivo [3]): 0.008
Tmax, brain (in vivo [3]): 0.53 ± 0.39 h
AUC(0-inf) (in vivo [3]; brain): 62.8 ng·h/mL
AUC(0-inf) (in vivo [3]; plasma): 5420 ng·h/mL
AUC(0-t) (in vivo [3]; brain): 17.9 ± 14.6 ng·h/mL
AUC(0-t) (in vivo [3]; plasma): 2320 ± 603 ng·h/mL
half-life (in vivo [3]; T1/2, brain): 2.85 h
half-life (in vivo [3]; T1/2, plasma): 3.86 h
Tmax (in vivo [3]; brain): 0.55 h
Tmax (in vivo [3]; plasma): 0.39 h
Structure (SMILES): O=C(Nc1ncc([N+](=O)[O-])s1)c1ccccc1O [Tizoxanide (TIZ), Tizoxanide]
Pharmacokinetic profile in humans [2]: excellent pharmacokinetic profiles
Tolerability in humans [2]: well-tolerated
Protein bound [4]: 99%

Structure (SMILES): O=C(Nc1ncc([N+](=O)[O-])s1)c1ccccc1O[C@@H]1O[C@H](C(=O)O)[C@@H](O)[C@H](O)[C@H]1O [Tizoxanide glucuronide (TIZ-G), Tizoxanide glucuronide]
Pharmacokinetic profile in humans [2]: excellent pharmacokinetic profiles
Tolerability in humans [2]: well-tolerated
